Reference: PMC10528385 (Antiviral research, 2023)

What was measured:
[1] = biological target: NA of A/Texas/12/2007 A(H3N2), NA-E119V (Influenza A virus, UniProt D1FVK3, I119V); test: biochemical
[2] = biological target: NA of A/Bethesda/956/2006 A(H3N2), NA-R292K (Influenza A virus, UniProt F1KL32, R292K); format: biochemical; details: read-out: Susceptibility to NAIs, mean IC50 ± SD

CC(=O)N[C@H]1[C@H]([C@H](O)[C@H](O)CO)OC(C(=O)O)=C[C@@H]1N=C(N)N [Zanamivir, zanamivir]
IC50 [1]: 1.3 nM | IC50 [2]: 10.6 ± 1.4 nM
